In patent US9434711B2 (Janssen Pharmaceutica, NV, priority 2007, dated 2016) one finds IC50 and inhibition data, which are given here for 32 compounds.

Structures are written as SMILES.

This test concerns the target canine TRPM8 (Canis lupus familiaris, UniProt Q1A7N1). Nature of the test: In Vitro Canine TRPM8 Functional Assay (Ca2+ fluorescence, icilin activation). Format: cell-based. To be noted: for IC50: HEK293 cells stably expressing canine TRPM8, icilin activation, eight-point dose-response, read-out: IC50; for inhibition at 0.2 µM: compound at 0.2 μM, read-out: % Inh @ 0.2; for inhibition at 0.2 µM / inhibition at 0.5 µM: canine TRPM8, icilin activation; for inhibition at 0.5 µM: compound at 0.5 μM, read-out: % Inh @ 0.5. A digest of the protocol: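 Canine TRPM8 stably expressed in HEK293; compound added 5 min before icilin challenge (~80% max response), with fluorescent Ca2+ signal tracked throughout.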

canine TRPM8, sequence (Q1A7N1 1-1104): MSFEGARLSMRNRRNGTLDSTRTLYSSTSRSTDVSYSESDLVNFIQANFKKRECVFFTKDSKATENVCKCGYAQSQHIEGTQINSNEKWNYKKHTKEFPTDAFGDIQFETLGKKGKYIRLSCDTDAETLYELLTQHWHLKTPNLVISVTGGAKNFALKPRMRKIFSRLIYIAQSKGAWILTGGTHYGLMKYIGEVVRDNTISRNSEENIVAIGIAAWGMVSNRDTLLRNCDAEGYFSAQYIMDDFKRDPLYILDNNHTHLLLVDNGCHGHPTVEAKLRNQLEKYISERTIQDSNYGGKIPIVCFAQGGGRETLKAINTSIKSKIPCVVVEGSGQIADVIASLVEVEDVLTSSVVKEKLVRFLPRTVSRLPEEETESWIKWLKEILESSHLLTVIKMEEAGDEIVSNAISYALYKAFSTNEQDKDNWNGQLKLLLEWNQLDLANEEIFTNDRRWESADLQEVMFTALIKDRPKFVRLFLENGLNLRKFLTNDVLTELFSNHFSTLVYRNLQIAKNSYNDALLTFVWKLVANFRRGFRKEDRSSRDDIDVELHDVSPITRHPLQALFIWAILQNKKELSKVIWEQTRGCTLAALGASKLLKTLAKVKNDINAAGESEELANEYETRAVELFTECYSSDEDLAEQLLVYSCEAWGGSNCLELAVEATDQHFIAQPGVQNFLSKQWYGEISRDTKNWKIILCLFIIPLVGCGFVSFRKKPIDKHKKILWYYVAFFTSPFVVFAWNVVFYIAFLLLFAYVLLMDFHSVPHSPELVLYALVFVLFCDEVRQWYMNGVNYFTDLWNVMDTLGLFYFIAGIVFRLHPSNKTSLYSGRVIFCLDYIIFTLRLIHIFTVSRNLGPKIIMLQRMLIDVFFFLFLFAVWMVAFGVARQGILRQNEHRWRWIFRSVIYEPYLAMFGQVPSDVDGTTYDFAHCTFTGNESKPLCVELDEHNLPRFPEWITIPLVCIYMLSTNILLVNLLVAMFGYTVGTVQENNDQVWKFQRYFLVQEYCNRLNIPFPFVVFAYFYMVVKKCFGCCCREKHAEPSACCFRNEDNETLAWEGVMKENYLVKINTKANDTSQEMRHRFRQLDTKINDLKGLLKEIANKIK

`CCCCN(c1sc2ccccc2c1Br)S(=O)(=O)CC` [Compound 261, N-(3-Bromo-benzo[b]thiophen-2-yl)-N-(butyl)-ethanesulfonamide]: the concentration for half-maximal inhibition (IC50) is 12.6 nM and the inhibition at 0.2 µM was found to be 97%.

Consider `CCS(=O)(=O)N(CC1CC1)c1sc2ccccc2c1Br` [Compound 262, N-(3-Bromo-benzo[b]thiophen-2-yl)-N-(cyclopropylmethyl)-ethanesulfonamide], for which the IC50 came out at 67 nM and the inhibition at 0.2 µM was 94%.

As to `CCS(=O)(=O)N(CC(F)F)c1sc2ccccc2c1Br` [Compound 263, N-(3-Bromo-benzo[b]thiophen-2-yl)-N-(2,2-difluoro-ethyl)-ethanesulfonamide], the IC50 came out at 203 nM and the inhibition at 0.2 µM is 52%.

For the compound `CCS(=O)(=O)N(CCOC(C)(C)C)c1sc2ccccc2c1Br` [Compound 264, N-(3-Bromo-benzo[b]thiophen-2-yl)-N-(2-tert-butoxy-ethyl)-ethanesulfonamide], the IC50 is 34.1 nM and the inhibition at 0.2 µM is 99%.

As to `CCCCN(c1sc2ccccc2c1Br)S(=O)(=O)N(C)C` [Compound 265, N-(3-Bromo-benzo[b]thiophen-2-yl)-N-(butyl)-N′,N′-dimethylsulfamide], the IC50 came to 22 nM and the inhibition at 0.2 µM turned out to be 90%.

For `CN(C)S(=O)(=O)N(CC1CC1)c1sc2ccccc2c1Br` [Compound 266, N-(3-Bromo-benzo[b]thiophen-2-yl)-N-(cyclopropylmethyl)-N′,N′-dimethylsulfamide], the IC50 was determined as 39 nM and the inhibition at 0.2 µM is 86%.

Consider `CN(C)S(=O)(=O)N(CCOC(C)(C)C)c1sc2ccccc2c1Br` [Compound 267, N-(3-Bromo-benzo[b]thiophen-2-yl)-N-(2-tert-butoxy-ethyl)-N′,N′-dimethylsulfamide], for which the concentration for half-maximal inhibition (IC50) was found to be 10 nM and the inhibition at 0.2 µM came to 96%.

Take `CN(C)S(=O)(=O)N(CC(F)F)c1sc2ccccc2c1Br` [Compound 268, N-(3-Bromo-benzo[b]thiophen-2-yl)-N-(2,2-difluoro-ethyl)-N′,N′-dimethylsulfamide]: the inhibition at 0.2 µM was found to be 67%.

As for `CN(C)S(=O)(=O)N(CCC(F)(F)F)c1sc2ccccc2c1Br` [Compound 269, N-(3-Bromo-benzo[b]thiophen-2-yl)-N-(3,3,3-trifluoropropyl)-N′,N′-dimethylsulfamide], the IC50 was found to be 16 nM and the inhibition at 0.2 µM was 94%.

Take `NCCN(c1sc2ccccc2c1Cl)S(=O)(=O)c1ccccc1` [Compound 270, N-(2-Amino-ethyl)-N-(3-chloro-benzo[b]thiophen-2-yl)-benzenesulfonamide]: the IC50 came to 338 nM and the inhibition at 0.5 µM came out at 75%.

Regarding `COCCN(c1sc2ccccc2c1Br)S(=O)(=O)c1ccc(C(=O)O)cc1` [Compound 274, N-(3-Bromo-benzo[b]thiophen-2-yl)-N-(2-methoxyethyl)-4-carboxy-benzenesulfonamide], the concentration for half-maximal inhibition (IC50) stood at 36 nM and the inhibition at 0.2 µM is 94%.

Consider `CC(C)(C)OCCN(c1sc2ccccc2c1Br)S(=O)(=O)c1ccc(C(=O)O)cc1` [Compound 275, N-(3-Bromo-benzo[b]thiophen-2-yl)-N-(2-tert-butoxy-ethyl)-4-carboxy-benzenesulfonamide], for which the IC50 is 3 nM and the inhibition at 0.2 µM was determined as 97%.

For the compound `O=C(O)c1ccc(S(=O)(=O)N(CC(F)F)c2sc3ccccc3c2Br)cc1` [Compound 276, N-(3-Bromo-benzo[b]thiophen-2-yl)-N-(2,2-difluoro-ethyl)-4-carboxy-benzenesulfonamide], the IC50 amounted to 71 nM and the inhibition at 0.2 µM is 76%.

On to `O=C(O)c1ccc(S(=O)(=O)N(CCN2CCOCC2)c2sc3ccccc3c2Br)cc1` [Compound 277, N-(3-Bromo-benzo[b]thiophen-2-yl)-N-(2-morpholin-4-yl-ethyl)-4-carboxy-benzenesulfonamide], for which the IC50 was found to be 39 nM and the inhibition at 0.2 µM amounted to 91%.

On to `O=C(O)c1ccc(S(=O)(=O)N(CC23CC4CC(CC(C4)C2)C3)c2sc3ccccc3c2Br)cc1` [Compound 278, N-(3-Bromo-benzo[b]thiophen-2-yl)-N-(adamant-1-yl-methyl)-4-carboxy-benzenesulfonamide], for which the 50% inhibitory concentration (IC50) came to 1 nM and the inhibition at 0.2 µM came out at 98%.

Take `O=C(O)c1ccc(S(=O)(=O)N(CC2CCCCC2)c2sc3ccccc3c2Br)cc1` [Compound 279, N-(3-Bromo-benzo[b]thiophen-2-yl)-N-(cyclohexylmethyl)-4-carboxy-benzenesulfonamide]: the IC50 was determined as 1.3 nM and the inhibition at 0.2 µM was found to be 97%.

For `CCCCN(c1sc2ccccc2c1C(C)O)S(=O)(=O)CC` (stereo not shown) [Compound 280, N-(Butyl)-N-[3-(1-hydroxy-ethyl)-benzo[b]thiophen-2-yl]-ethanesulfonamide], the inhibition at 0.2 µM was found to be 87%.

As to `CCS(=O)(=O)N(CC1CC1)c1sc2ccccc2c1C(C)O` (stereo not shown) [Compound 281, N-(Cyclopropylmethyl)-N-(3-(1-hydroxyethyl)benzo[b]thiophen-2-yl)-ethanesulfonamide], the inhibition at 0.2 µM is 62%.

Turning to `CCS(=O)(=O)N(CCC(F)(F)F)c1sc2ccccc2c1C(C)O` (stereo not shown) [Compound 282, N-(3-(1-Hydroxyethyl)benzo[b]thiophen-2-yl)-N-(3,3,3-trifluoro-propyl)-ethanesulfonamide], the half-inhibitory concentration (IC50) worked out at 70 nM and the inhibition at 0.2 µM was found to be 86%.

Take `CCS(=O)(=O)N(CCOC(C)(C)C)c1sc2ccccc2c1C(C)O` (stereo not shown) [Compound 283, N-(2-tert-Butoxyethyl)-N-(3-(1-hydroxyethyl)benzo[b]thiophen-2-yl)-ethanesulfonamide]: the concentration for half-maximal inhibition (IC50) was 92 nM and the inhibition at 0.2 µM is 82%.

Regarding `Cc1c(N(Cc2ccc(F)c(F)c2)S(=O)(=O)c2ccc(O)cc2)sc2ccccc12` [Compound 285, N-(3,4-Difluoro-benzyl)-N-(3-methyl-benzo[b]thiophen-2-yl)-4-hydroxy-benzenesulfonamide], the IC50 turned out to be 2.5 nM and the inhibition at 0.5 µM was 100%.

Turning to `Cc1c(N(Cc2ccc(F)c(F)c2)S(=O)(=O)c2cccc(O)c2)sc2ccccc12` [Compound 286, N-(3,4-Difluoro-benzyl)-N-(3-methyl-benzo[b]thiophen-2-yl)-3-hydroxy-benzenesulfonamide], the IC50 was 7 nM and the inhibition at 0.5 µM was 99%.

On to `O=S(=O)(c1ccccc1)N(Cc1cccc(O)c1)c1cc2ccccc2s1` [Compound 287, N-(Benzo[b]thiophen-2-yl)-N-(3-hydroxy-benzyl)-benzenesulfonamide], for which the IC50 is 29.8 nM and the inhibition at 0.5 µM turned out to be 96%.

Turning to `O=S(=O)(c1cccc(O)c1)N(Cc1ccc(F)c(C(F)(F)F)c1)c1sc2ccccc2c1Cl` [Compound 288, N-(3-Chloro-benzo[b]thiophen-2-yl)-N-(4-fluoro-3-trifluoromethyl-benzyl)-3-hydroxy-benzenesulfonamide], the half-inhibitory concentration (IC50) was 20 nM and the inhibition at 0.2 µM came out at 90%.

As to `O=S(=O)(c1ccc(O)cc1)N(Cc1ccc(F)c(C(F)(F)F)c1)c1sc2ccccc2c1Cl` [Compound 289, N-(3-Chloro-benzo[b]thiophen-2-yl)-N-(4-fluoro-3-trifluoromethyl-benzyl)-4-hydroxy-benzenesulfonamide], the concentration for half-maximal inhibition (IC50) is 27 nM and the inhibition at 0.2 µM was determined as 92%.

`O=S(=O)(c1ccc(O)cc1)N(Cc1ccc(F)c(C(F)(F)F)c1)c1sc2ccccc2c1Br` [Compound 290, N-(3-Bromo-benzo[b]thiophen-2-yl)-N-(4-fluoro-3-trifluoromethyl-benzyl)-4-hydroxy-benzenesulfonamide]: the IC50 stood at 5.3 nM and the inhibition at 0.2 µM amounted to 103%.

As to `O=S(=O)(c1cccc(O)c1)N(Cc1ccc(F)c(C(F)(F)F)c1)c1sc2ccccc2c1Br` [Compound 291, N-(3-Bromo-benzo[b]thiophen-2-yl)-N-(4-fluoro-3-trifluoromethyl-benzyl)-3-hydroxy-benzenesulfonamide], the half-maximal inhibitory concentration (IC50) is 5.8 nM and the inhibition at 0.2 µM worked out at 101%.

As to `O=C(O)c1cccc(S(=O)(=O)N(Cc2ccc(F)c(C(F)(F)F)c2)c2sc3ccccc3c2Br)c1` [Compound 293, N-(3-Bromo-benzo[b]thiophen-2-yl)-N-(4-fluoro-3-trifluoromethyl-benzyl)-3-carboxy-benzenesulfonamide], the IC50 is 7.8 nM, the inhibition at 0.2 µM is 101% and the inhibition at 0.5 µM is 101%.

Take `O=C(O)c1ccc(S(=O)(=O)N(Cc2ccc(F)c(C(F)(F)F)c2)c2sc3ccccc3c2Cl)cc1` [Compound 294, N-(3-Chloro-benzo[b]thiophen-2-yl)-N-(4-fluoro-3-trifluoromethyl-benzyl)-4-carboxy-benzenesulfonamide]: the IC50 was determined as 1.8 nM and the inhibition at 0.2 µM was determined as 99%.

Regarding `O=C(O)c1cccc(S(=O)(=O)N(Cc2ccc(F)c(C(F)(F)F)c2)c2cc3ccccc3s2)c1` [Compound 295, N-(Benzo[b]thiophen-2-yl)-N-(4-fluoro-3-trifluoromethyl-benzyl)-3-carboxy-benzenesulfonamide], the concentration for half-maximal inhibition (IC50) was 33 nM and the inhibition at 0.2 µM was 81%.

In the case of `O=C(O)c1ccc(S(=O)(=O)N(Cc2ccc(F)c(C(F)(F)F)c2)c2cc3ccccc3s2)cc1` [Compound 296, N-(Benzo[b]thiophen-2-yl)-N-(4-fluoro-3-trifluoromethyl-benzyl)-4-carboxy-benzenesulfonamide], the half-inhibitory concentration (IC50) amounted to 2 nM and the inhibition at 0.2 µM was found to be 96%.

On to `O=C(O)c1ccccc1S(=O)(=O)N(Cc1ccc(F)c(C(F)(F)F)c1)c1sc2ccccc2c1Cl` [Compound 297, N-(3-Chloro-benzo[b]thiophen-2-yl)-N-(4-fluoro-3-trifluoromethyl-benzyl)-2-carboxy-benzenesulfonamide], for which the inhibition at 0.2 µM came to 21%.
